Test [1] has as its system antibody raised against Tyr-(CGRP amino acids 25-37)-amide. In words: Radioimmunoassay cross-reactivity with 125I-Tyr-(CGRP amino acids 25-37)-amide tracer. In kind it is binding, rabbit. Particulars: 1:12500 dilution of serum, 1800 cpm tracer, 400 μl assay. On the procedure: Cells from a 500 ml culture were harvested and lysed in a lysozyme/sodium deoxycholate mixture (5 ml), then treated with DNase for 30 mins. at 5° C. (Emtage J. S. et al PNAS (1983), 80, p 3671-3675). […] Radioimmunoassay was carried out in 0.05M phosphate buffer pH 7.4 in a final volume of 400 ul (see Girgis, S. I. et al J. Endocrinol 78, 372-382). Antiserum was raised in rabbits, using the known techniques, against Tyr-(CGRP amino acids 25-37)-amide and conjugated to chick ovalbumin (Reichlin, M.1980, Meth.Enzymol 70 159-165) and against ^125 I Tyr-(CGRP amino acids 25-37)-amide tracer.
The tracer was iodinated using the Chloramine T method of Hunter and Greenwood.

For test [2], the system named is guinea-pig right atrial preparation. In words: Rate and force of contraction of isolated guinea-pig right atrium. In kind it is cell-based. On the procedure:
Male Dunkin Hartley guinea-pigs (280-400 g) were killed by cervical dislocation and exsanguinated. The heart was removed, the right atrium dissected out and mounted under 0.5 g tension in Krebs solution (mM): NaCl 118, KCl 4.7, CaCl2 2.5, KH2 PO4 1.18, NaHCO3 25, MgSO4 1.18 and glucose 11.1, at 34° C. bubbled with 95:5 02 :CO2. Atrial force and rate were measured isometrically by a Grass FT.03 transducer and recorded on a Grass polygraph. Single doses of either human or rat CGRP were given in a random order.

Test [3] relates to pentobarbitone anaesthetised rat. Briefly: Cardiovascular actions (mean arterial pressure, heart rate) after i.v. administration in anaesthetised rats. The class given is in vivo. On the procedure: Groups of 4 to 6 male Sprague-Dawley rats (285-315 g) were anaesthetised with sodium pentobarbitone (60 mg Kg^-1 i.p.). The trachea, left carotid artery and left jugular vein were cannulated. Blood pressure was recorded from the carotid artery on a Grass polygraph via a Statham P23 ID pressure transducer and mean arterial pressure derived from the trace. Heart rate was measured by a tachograph (Grass model 7P4) triggered by the blood pressure signal. […] Purified rat CGRP was from the same source. All synthetic preparations were subject to mass spectrometry (M-Scan Ltd.) to confirm structure and purity before use. […] All compounds were administered intravenously except for mepyramine (s.c.). […] The peak fall in mean arterial pressure (MAP) and heart rate (HR) after 2 min was measured.
The mechanism of action of PDA-4 was not examined.

The mark [4] stands for this setting: cumulative doses at 2 min intervals, anaesthetised rat.

This note sets out measurements from patent US5374618A, “Calcitonin peptides, and gene related pharmaceutical compositions” (Celltech Limited, priority 1983, dated 1994).

For `CC(C)C[C@H](NC(=O)[C@H](CCCCN)NC(=O)CNC(=O)[C@H](CC(C)C)NC(=O)[C@@H](NC(=O)[C@@H]1CSSC[C@H](N)C(=O)N[C@@H](CO)C(=O)N[C@@H](CC(N)=O)C(=O)N[C@@H](CC(C)C)C(=O)N[C@@H](CO)C(=O)N[C@@H]([C@@H](C)O)C(=O)N1)C(C)C)C(=O)N[C@@H](CO)C(=O)N[C@@H](CCC(N)=O)C(=O)N[C@@H](CCC(=O)O)C(=O)N[C@@H](CC(C)C)C(=O)N[C@@H](Cc1c[nH]cn1)C(=O)N[C@@H](CCCCN)C(=O)N[C@@H](CC(C)C)C(=O)N[C@@H](CCC(N)=O)C(=O)N[C@H](C(=O)N[C@@H](Cc1ccc(O)cc1)C(=O)N1CCC[C@H]1C(=O)N[C@@H](CCCNC(=N)N)C(=O)N[C@H](C(=O)N[C@@H](CC(N)=O)C(=O)N[C@H](C(=O)NCC(=O)N[C@@H](CO)C(=O)NCC(=O)N[C@H](C(=O)N1CCC[C@H]1C(N)=O)[C@@H](C)O)[C@@H](C)O)[C@@H](C)O)[C@@H](C)O` [salmon calcitonin], the “cross-reaction with the antibody (displacement of tracer)” value in test [1] is listed as “does not cross-react”.
Still for that read-out and setting: the result for “Tyr-CGRP (amino acids 1-8): tyrosinated fragment of human CGRP, amino acids 1 to 8 (ACDTATCV; Calcitonin gene-related peptide 1 N-terminal tyrosine added; UniProt P06881 83-90, looked up, fragment)” reads “does not cross-react”; that for “human calcitonin: human calcitonin, tested for cross-reaction in the radioimmunoassay”, “does not cross-react”.
On the same count and under the same terms, the result for “katacalcin: carboxy terminal peptide designated PDN-21 (Katacalcin) of the human calcitonin polyprotein (DMSSDLERDHRPHVSMPQNAN; Katacalcin; UniProt P01258 121-141, looked up)” reads “does not cross-react”.
For “rat CGRP: synthetic rat CGRP preparation from Peninsula Laboratories”, in test [1], the “cross-reaction with the antibody (displacement of tracer)” value is reported as “recognises antigenic determinants”. In test [2] (isolated right atrium), the “potency relative to human CGRP at increasing rate (times more potent)” value is on record as “approximately 10 times” and the “potency relative to human CGRP in evoking increases in force” value was “equipotent”. For the same molecule, the “increase in rate or force in presence of propranolol” value in test [2] (propranolol) is “Neither the increase in rate or force produced by rat CGRP was blocked”. Also, in test [3] (setting [4]), the “fall in mean arterial pressure (MAP)” value was “dose-dependent fall in MAP” and the “increase in heart rate (HR)” value is given as “increase in HR”. Further, the “dose representing a 50% decrease in blood pressure” value in test [3] (pentobarbitone anaesthetised rat) was found to be 0.23 nmol/kg.
